Among the data in patent publication US20090137615A1, “INDAZOLYLAMINO QUINAZOLINE DERIVATIVES AS ANTITUMOUR AGENTS” (priority 2005, published 2009) are IC50 values, retold here.

Test [1] has as its target T1, EGFR tyrosine kinase (Homo sapiens, UniProt P00533).
T1 construct: Recombinant intracellular fragments of EGFR, erbB2 and erbB4; made in house; host or cells: baculovirus/Sf21 insect cells (cleared lysate used)
The experiment in a line: Protein tyrosine kinase phosphorylation assay, Test (a), EGFR. The class given is biochemical. To be noted: recombinant intracellular fragment, ATP at Km; read-out: IC50 Test (a): Inhibition of EGFR tyrosine kinase protein phosphorylation. Here is the method: (§1) This test measures the ability of a test compound to inhibit the phosphorylation of a tyrosine containing polypeptide substrate by EGFR, erbB2 and erbB4 tyrosine kinase enzyme.
(§2) Recombinant intracellular fragments of EGFR, erbB2 and erbB4 (accession numbers X00588, X03363 and L07868 respectively) were cloned and expressed in the baculovirus/Sf21 system. […]
(§3) Constitutive kinase activity of these recombinant proteins was determined by their ability to phosphorylate a synthetic peptide (made up of a random co-polymer of Glutamic Acid, Alanine and Tyrosine in the ratio of 6:3:1). […]
(§4) The immobilised phospho-peptide product of the reaction was detected by immunological methods. […] After further washing, HRP activity in each well of the plate was measured colorimetrically using 22′-Azino-di-[3-ethylbenzthiazoline sulfonate (6)]diammonium salt crystals (ABTS™ from Roche) as a substrate.
(§5) Quantification of colour development and thus enzyme activity was achieved by the measurement of absorbance at 405 nm on a Molecular Devices ThermoMax microplate reader. Kinase inhibition for a given compound was expressed as an IC50 value. […] The range of phosphorylation was calculated from the positive (vehicle plus ATP) and negative (vehicle minus ATP) control values.

Test [2] deals with T2, erbB2 tyrosine kinase (Homo sapiens, UniProt P04626).
T2 construct: Recombinant intracellular fragments of EGFR, erbB2 and erbB4; made in house; host or cells: baculovirus/Sf21 insect cells (cleared lysate used)
T2 sequence (P04626 676-1255 limits assumed): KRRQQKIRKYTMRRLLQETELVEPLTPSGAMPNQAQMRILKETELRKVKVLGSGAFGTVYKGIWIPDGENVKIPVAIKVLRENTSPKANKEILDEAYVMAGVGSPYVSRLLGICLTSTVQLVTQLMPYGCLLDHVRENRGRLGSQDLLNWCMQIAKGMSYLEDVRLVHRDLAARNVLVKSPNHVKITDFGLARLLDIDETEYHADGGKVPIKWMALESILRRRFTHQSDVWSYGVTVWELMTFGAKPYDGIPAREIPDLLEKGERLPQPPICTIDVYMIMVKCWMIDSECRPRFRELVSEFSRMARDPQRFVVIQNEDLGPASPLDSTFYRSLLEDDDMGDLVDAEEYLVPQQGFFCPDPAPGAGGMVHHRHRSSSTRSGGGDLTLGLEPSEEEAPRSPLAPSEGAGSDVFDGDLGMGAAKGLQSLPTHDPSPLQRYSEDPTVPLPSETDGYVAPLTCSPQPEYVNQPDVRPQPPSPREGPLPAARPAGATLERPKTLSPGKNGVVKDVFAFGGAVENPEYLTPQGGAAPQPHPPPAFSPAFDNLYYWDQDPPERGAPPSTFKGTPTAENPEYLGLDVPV
As to the kind of experiment: Protein tyrosine kinase phosphorylation assay, Test (a), erbB2. To be noted: recombinant intracellular fragment, ATP at Km; read-out: IC50 Test (a): Inhibition of erbB2 tyrosine kinase protein phosphorylation. It is filed as biochemical. The protocol: as §1, §2, §3, §4, §5

For test [3], the target named is T3, erbB2 (Homo sapiens, UniProt P04626).
T3 construct: a cell line that overexpresses full length wild type erbB2 protein; expressed in transfected cells; host or cells: MCF7 (breast carcinoma) derived 'Clone 24' cells
T3 sequence (P04626 23-1255): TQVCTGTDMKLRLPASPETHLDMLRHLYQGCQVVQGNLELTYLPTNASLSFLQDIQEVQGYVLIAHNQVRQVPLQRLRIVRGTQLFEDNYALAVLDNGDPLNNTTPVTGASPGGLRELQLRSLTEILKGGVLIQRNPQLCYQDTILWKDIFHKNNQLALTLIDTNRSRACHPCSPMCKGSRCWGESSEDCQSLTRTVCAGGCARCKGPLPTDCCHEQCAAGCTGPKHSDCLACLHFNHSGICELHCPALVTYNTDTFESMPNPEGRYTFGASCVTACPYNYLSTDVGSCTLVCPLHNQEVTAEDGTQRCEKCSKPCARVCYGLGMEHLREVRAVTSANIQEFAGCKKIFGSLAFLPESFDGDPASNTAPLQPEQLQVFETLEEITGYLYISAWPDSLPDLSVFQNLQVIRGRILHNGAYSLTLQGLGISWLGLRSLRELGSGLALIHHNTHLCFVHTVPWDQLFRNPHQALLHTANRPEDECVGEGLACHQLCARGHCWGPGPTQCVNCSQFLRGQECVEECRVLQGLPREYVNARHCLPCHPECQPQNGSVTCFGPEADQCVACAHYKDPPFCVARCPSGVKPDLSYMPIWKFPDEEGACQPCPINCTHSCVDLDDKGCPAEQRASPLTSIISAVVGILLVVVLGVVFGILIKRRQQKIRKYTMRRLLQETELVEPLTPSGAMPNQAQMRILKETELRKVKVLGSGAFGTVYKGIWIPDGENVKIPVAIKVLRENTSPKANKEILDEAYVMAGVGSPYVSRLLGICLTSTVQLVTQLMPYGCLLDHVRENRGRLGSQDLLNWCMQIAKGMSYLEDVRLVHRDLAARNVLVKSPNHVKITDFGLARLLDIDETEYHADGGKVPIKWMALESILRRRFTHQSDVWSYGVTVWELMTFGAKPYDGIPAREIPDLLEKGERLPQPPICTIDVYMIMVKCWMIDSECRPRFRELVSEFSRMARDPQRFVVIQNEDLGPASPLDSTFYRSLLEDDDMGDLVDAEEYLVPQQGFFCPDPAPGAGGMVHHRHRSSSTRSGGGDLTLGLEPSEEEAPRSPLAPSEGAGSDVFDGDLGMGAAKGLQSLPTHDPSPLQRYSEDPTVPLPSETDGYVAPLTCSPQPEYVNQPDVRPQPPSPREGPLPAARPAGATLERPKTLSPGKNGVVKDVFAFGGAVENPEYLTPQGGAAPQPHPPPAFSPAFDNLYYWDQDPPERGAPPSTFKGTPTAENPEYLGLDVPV
The experiment in a line: Clone 24 phospho-erbB2 cell assay, Test (c). The class given is cell-based. To be noted: MCF7 derived cell line (Clone 24) overexpressing erbB2, 4 hours; read-out: IC50 Test (c): Inhibition of erbB2 tyrosine kinase protein phosphorylation. Here is the method: This immunofluorescence end point assay measures the ability of a test compound to inhibit the phosphorylation of erbB2 in a MCF7 (breast carcinoma) derived cell line which was generated by transfecting MCF7 cells with the full length erbB2 gene using standard methods to give a cell line that overexpresses full length wild type erbB2 protein (hereinafter ‘Clone 24’ cells).
Clone 24 cells were cultured in Growth Medium (phenol red free Dulbecco's modified Eagle's medium (DMEM) containing 10% foetal bovine serum, 2 mM glutamine and 1.2 mg/ml G418) in a 7.5% CO2 air incubator at 37° C. […] Cell density was measured using a haemocytometer and viability was calculated using Trypan Blue solution before being further diluted in Growth Medium and seeded at a density of 1×10^4 cells per well (in 100 μl) into clear bottomed 96 well plates (Packard, No. 6005182). […]
Immunostaining was performed at room temperature. […] Plates were analysed within six hours of completing the immunostaining.
The Fluorescence signal is each well was measured using an Acumen Explorer Instrument (Acumen Bioscience Ltd.), a plate reader that can be used to rapidly quantitate features of images generated by laser-scanning. […]

T1 sequence (P00533 669-1210 limits assumed): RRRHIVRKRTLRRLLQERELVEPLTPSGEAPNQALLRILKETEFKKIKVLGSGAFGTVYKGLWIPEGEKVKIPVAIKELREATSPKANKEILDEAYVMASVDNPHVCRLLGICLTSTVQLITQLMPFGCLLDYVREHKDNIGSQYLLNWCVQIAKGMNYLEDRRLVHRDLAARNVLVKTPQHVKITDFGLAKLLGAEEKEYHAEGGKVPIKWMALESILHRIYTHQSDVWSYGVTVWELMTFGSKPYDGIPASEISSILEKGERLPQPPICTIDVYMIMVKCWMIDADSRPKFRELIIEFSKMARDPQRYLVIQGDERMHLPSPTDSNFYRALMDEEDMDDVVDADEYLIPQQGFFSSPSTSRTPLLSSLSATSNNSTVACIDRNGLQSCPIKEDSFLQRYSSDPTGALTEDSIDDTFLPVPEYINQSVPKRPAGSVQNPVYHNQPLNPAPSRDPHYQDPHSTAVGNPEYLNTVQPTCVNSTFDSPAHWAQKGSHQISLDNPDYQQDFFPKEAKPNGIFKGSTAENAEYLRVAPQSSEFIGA

As a reminder, the IC50 is the concentration at which inhibition is half-maximal. As to `O=C(CO)N1CCCC[C@@H]1COc1cccc2ncnc(Nc3ccc4c(cnn4Cc4ccccn4)c3)c12` [Example 4, 2-Oxo-2-((2R)-2-{[(4-{[1-(pyridin-2-ylmethyl)-1H-indazol-5-yl]amino}quinazolin-5-yl)oxy]methyl}piperidin-1-yl)ethanol], the IC50 in test [1] is 61 nM; in test [2] it was 5 nM; in test [3], 44 nM.

With `O=C(CO)N1CCC[C@@H]1COc1cccc2ncnc(Nc3ccc4c(cnn4Cc4ccccn4)c3)c12` [Example 1, 2-Oxo-2-((2R)-2-{[(4-{[1-(pyridin-2-ylmethyl)-1H-indazol-5-yl]amino}quinazolin-5-yl)oxy]methyl}pyrrolidin-1-yl)ethanol], the IC50 was 310 nM in test [1], 6 nM in test [2] and 380 nM in test [3].
